Data published in patent US6391902B1, “Substituted benzofuranoindoles and indenoindoles as novel potassium channel openers” (American Home Products Corporation, priority 1998, dated 2002).
Marks after values point to notes of the source that are not given here.

Columns and labels:
[1] = tested on: Bladder Tissue; assay: Relaxation of KCl-stimulated isolated rat bladder strips (contractile activity); parameters: species or system Sprague-Dawley rats; conditions: for inhibition at 30 µM: read-out: Bladder Tissue I = Percent inhibition at 30 μM
Protocol: Sprague-Dawley rats (150-200 g) are rendered unconscious by CO2 asphyxiation and then euthanized by cervical dislocation. The bladder is removed into warm (37° C.) physiological salt solution (PSS) of the following composition (mM): NaCl, 118.4; KCl, 4.7; CaCl2, 2.5; […]; NaHCO3, 24.9; KH2PO4, 1.2; glucose, 11.1; EDTA, 0.023; gassed with 95% O2; […]; pH 7.4. The bladder is opened and then cut into strips 1-2 mm in width and 7-10 mm in length. The strips are subsequently suspended in a 10 mL tissue bath under an initial resting tension of 1.5 g. The strips are held in place by two surgical clips one of which is attached to a fixed hook while the other is attached to an isometric force transducer. […] The carbachol is then washed out and the tissue allowed to relax to its resting level of activity. Following a further 30 min period of recovery an additional 15 mM KCl re introduced into the tissue bath. […] Following stabilization of this enhanced level of contractile activity, incremental increases in the concentration of test compound or vehicle are introduced into the tissue bath. Contractile activity is measured for each compound or vehicle concentration during the last minute of a 30 minute challenge.

[2] = rat bladder strips, additional 15 mM KCl, 30 μM test compound

With `O.O.O=C(O)c1cccc2c1[nH]c1c3cc([N+](=O)[O-])ccc3oc21` (hydrate or solvate) [Example 4, 8-Nitro-10H-benzo[4,5]furo[3,2-b]indole-1-carboxylic acid dihydrate] the melting point was 325 °C (dec.).
With `N#Cc1cccc2c1[nH]c1c3cc(Br)ccc3oc21.O` (hydrate or solvate) [Example 10, 8-Bromo-10H-benzo[4,5]furo[3,2-b]indole-1-carbonitrile hydrate] the melting point was 277 to 280 °C (dec.).
For `NC(=O)c1cccc2c1[nH]c1c3cc(Br)ccc3oc21` [Example 5, 8-Bromo-10H-benzo[4,5]furo[3,2-b]indole-1-carboxylic acid amide], the inhibition at 30 µM [1, 2] was 13.5% and the melting point was 300 to 301 °C.
Compound `COC(=O)c1cccc2c1[nH]c1c3cc(Br)ccc3oc21` [Example 6, 8-Bromo-10H-benzo[4,5]furo[3,2-b]indole-1-carboxylic acid methyl ester] has an inhibition at 30 µM [1, 2] of 31% and a melting point of 204 to 205 °C.
Compound `OCc1cccc2c1[nH]c1c3cc(Br)ccc3oc21` [Example 7, (8-Bromo-10H-benzo[4,5]furo[3,2-b]indol-1-yl)-methanol] has a melting point of 218 to 219 °C.
Compound `O=Cc1cccc2c1[nH]c1c3cc(Br)ccc3oc21` [Example 9, 8-Bromo-10H-benzo[4,5]furo[3,2-b]indole-1-carbaldehyde] has an inhibition at 30 µM [1, 2] of 19% and a melting point of 280 to 281 °C.
With `N#Cc1cccc2c1[nH]c1c3cc(Br)ccc3oc21` [Example 10, 8-Bromo-10H-benzo[4,5]furo[3,2-b]indole-1-carbonitrile hydrate] the inhibition at 30 µM [1, 2] was 10.1%.
With `Brc1ccc2oc3c4cccc(-c5nnn[nH]5)c4[nH]c3c2c1` [Example 11, 8-Bromo-1-(1H-tetrazol-5-yl)-10H-benzo[4,5]furo[3,2-b]indole] the inhibition at 30 µM [1, 2] was 30.9% and the melting point was 275 to 277 °C (dec.).
For `CCC(C)(C)NC(=O)c1cccc2c1[nH]c1c3cc(Br)ccc3oc21` [Example 13, 8-Bromo-10H-benzo[4,5]furo[3,2-b]indole-1-carboxylic acid (1,1-dimethyl-propyl)-amide], the inhibition at 30 µM [1, 2] was 28.5% and the melting point was 242 to 244 °C (dec.).
For `CNC(=O)c1cccc2c1[nH]c1c3cc(Br)ccc3oc21` [Example 14, 8-Bromo-10H-benzo[4,5]furo[3,2-b]indole-1-carboxylic acid methylamide], the inhibition at 30 µM [1, 2] was 4.8% and the melting point was 264 to 265 °C (dec.).
With `COC(=O)c1cccc2c3oc4ccc(Br)cc4c3n(C)c12` [Example 15, 8-Bromo-10-methyl-10H-benzo[4,5]furo[3,2-b]indole-1-carboxylic acid methyl ester] the inhibition at 30 µM [1, 2] was 4.5% and the melting point was 195 to 196 °C.
In the case of `O=C(O)c1cccc2c1[nH]c1c3ccccc3oc21` [Example 16, 10H-Benzo[4,5]furo[3,2-b]indole-1-carboxylic acid], the IC50 ([1]; Rattus norvegicus, 0.5 h) is reported as 31 ± 6.5 µM and the melting point is reported as 279 to 280 °C (dec.).
Work on `O=C(O)c1cccc2c1Cc1c-2[nH]c2ccc(I)cc12` [Example 17, 8-Iodo-5,10-dihydro-indeno[1,2-b]indole-1-carboxylic acid 0.6 hydrate] yielded an IC50 ([1]; rat bladder strips, additional 15 mM KCl, 50% inhibition of pre-drug contractile activity, 30 minute challenge) of 10.1 ± 3.2 µM.
With `NS(=O)(=O)c1ccc2[nH]c3c(c2c1)Cc1c(C(=O)O)cccc1-3.NS(=O)(=O)c1ccc2[nH]c3c(c2c1)Cc1c(C(=O)O)cccc1-3.O` [Example 18, 8-Sulfamoyl-5,10-dihydro-indeno[1,2-b]indole-1-carboxylic acid hemi-hydrate] the “Bladder Tissue I = Percent inhibition at 30 μM” value [1, 2] was “I = 5.2%*”.
Compound `O=C(O)c1cccc2c1Cc1c-2[nH]c2ccc(Cl)cc12` [Example 20, 8-Chloro-5,10-dihydro-indeno[1,2-b]indole-1-carboxylic acid] has an IC50 ([1]; Rattus norvegicus, 0.5 h) of 22.6 ± 1.8 µM and a melting point of over 300 °C.
With `O=C(O)c1cccc2c1Cc1c-2[nH]c2ccc(OC(F)(F)F)cc12` [Example 21, 8-Trifluoromethoxy-5,10-dihydro-indeno[1,2-b]indole-1-carboxylic acid] the IC50 ([1]; Rattus norvegicus, 0.5 h) was 15.4 ± 4.8 µM and the melting point was 256 to 265 °C (dec.).
